Source: the supplement of paper PMC10307832

Tests used:
Test in all cases: relative viability (nuclei count vs DMSO), 5 days (fraction); higher = more cells survive
Dabrafenib + Crizotinib = compound: CC(C)(C)c1nc(-c2cccc(NS(=O)(=O)c3c(F)cccc3F)c2F)c(-c2ccnc(N)n2)s1 [Dabrafenib] + C[C@@H](Oc1cc(-c2cnn(C3CCNCC3)c2)cnc1N)c1c(Cl)ccc(F)c1Cl [Crizotinib] (partner 1 µM)
Summary of the method: (§1)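 Cells from lung cancer lines were seeded into 1536-well plates and, one day later, dosed by pin tool. Treatments were either a single drug or a fixed dose of an anchor drug with five library-drug doses (not always all listed) in √10 steps. After 5 days, nuclei were stained in a one-step fixation (final 0.05% Triton X-100, 1% formaldehyde, 1 ug/ml Hoechst) and counted on 4× images, and relative viability is the treated-to-vehicle nuclei ratio, as the median of duplicate plates.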

VX-702 + AZD7762 = compound: NC(=O)c1ccc(N(C(N)=O)c2c(F)cccc2F)nc1-c1ccc(F)cc1F [VX-702] + NC(=O)Nc1cc(-c2cccc(F)c2)sc1C(=O)N[C@H]1CCCNC1 [AZD7762] (partner 0.2 µM)
Summary of the method: as §1

VX-702 + Bortezomib = compound: NC(=O)c1ccc(N(C(N)=O)c2c(F)cccc2F)nc1-c1ccc(F)cc1F [VX-702] + CC(C)C[C@H](NC(=O)[C@H](Cc1ccccc1)NC(=O)c1cnccn1)B(O)O [Bortezomib] (partner 0.002 µM)
Summary of the method: as §1

Dabrafenib + Bortezomib = compound: CC(C)(C)c1nc(-c2cccc(NS(=O)(=O)c3c(F)cccc3F)c2F)c(-c2ccnc(N)n2)s1 [Dabrafenib] + CC(C)C[C@H](NC(=O)[C@H](Cc1ccccc1)NC(=O)c1cnccn1)B(O)O [Bortezomib] (partner 0.002 µM)
Summary of the method: as §1

201T
relative viability (Dabrafenib + Crizotinib; first compound 0.003 µM): 1.04 | relative viability (Dabrafenib + Crizotinib; first compound 0.009487 µM): 1.01 | relative viability (Dabrafenib + Crizotinib; first compound 0.03 µM): 0.939 | relative viability (Dabrafenib + Crizotinib; first compound 0.09487 µM): 1.03 | relative viability (Dabrafenib + Crizotinib; first compound 0.3 µM): 1.03 | relative viability (VX-702 + AZD7762; first compound 0.02 µM): 0.585 | relative viability (VX-702 + AZD7762; first compound 0.2 µM): 0.561 | relative viability (VX-702 + AZD7762; first compound 0.6325 µM): 0.509 | relative viability (VX-702 + AZD7762; first compound 2 µM): 0.449 | relative viability (VX-702 + Bortezomib; first compound 0.02 µM): 1.13 | relative viability (VX-702 + Bortezomib; first compound 0.2 µM): 1.07 | relative viability (VX-702 + Bortezomib; first compound 0.6325 µM): 1.17 | relative viability (VX-702 + Bortezomib; first compound 2 µM): 1.17 | relative viability (Dabrafenib + Bortezomib; first compound 0.003 µM): 1.08 | relative viability (Dabrafenib + Bortezomib; first compound 0.009487 µM): 1.07 | relative viability (Dabrafenib + Bortezomib; first compound 0.03 µM): 1.06 | relative viability (Dabrafenib + Bortezomib; first compound 0.09487 µM): 1.11 | relative viability (Dabrafenib + Bortezomib; first compound 0.3 µM): 1.1

A549
relative viability (Dabrafenib + Crizotinib; first compound 0.003 µM): 0.805 | relative viability (Dabrafenib + Crizotinib; first compound 0.009487 µM): 0.763 | relative viability (Dabrafenib + Crizotinib; first compound 0.03 µM): 0.887 | relative viability (Dabrafenib + Crizotinib; first compound 0.09487 µM): 0.737 | relative viability (Dabrafenib + Crizotinib; first compound 0.3 µM): 0.768

A-427
relative viability (Dabrafenib + Crizotinib; first compound 0.009487 µM): 0.883 | relative viability (Dabrafenib + Crizotinib; first compound 0.03 µM): 0.772 | relative viability (Dabrafenib + Crizotinib; first compound 0.09487 µM): 0.87 | relative viability (Dabrafenib + Crizotinib; first compound 0.3 µM): 1.03 | relative viability (VX-702 + AZD7762; first compound 0.02 µM): 0.742 | relative viability (VX-702 + AZD7762; first compound 0.2 µM): 0.699 | relative viability (VX-702 + AZD7762; first compound 0.6325 µM): 0.661 | relative viability (VX-702 + AZD7762; first compound 2 µM): 0.738 | relative viability (VX-702 + Bortezomib; first compound 0.02 µM): 0.984 | relative viability (VX-702 + Bortezomib; first compound 0.2 µM): 0.947 | relative viability (VX-702 + Bortezomib; first compound 0.6325 µM): 0.988 | relative viability (VX-702 + Bortezomib; first compound 2 µM): 1.05 | relative viability (Dabrafenib + Bortezomib; first compound 0.009487 µM): 0.969 | relative viability (Dabrafenib + Bortezomib; first compound 0.03 µM): 0.939 | relative viability (Dabrafenib + Bortezomib; first compound 0.09487 µM): 0.821 | relative viability (Dabrafenib + Bortezomib; first compound 0.3 µM): 0.987

ABC-1
relative viability (Dabrafenib + Crizotinib; first compound 0.009487 µM): 1.11 | relative viability (Dabrafenib + Crizotinib; first compound 0.03 µM): 1.02 | relative viability (Dabrafenib + Crizotinib; first compound 0.09487 µM): 0.961 | relative viability (Dabrafenib + Crizotinib; first compound 0.3 µM): 1.34 | relative viability (VX-702 + AZD7762; first compound 0.02 µM): 0.425 | relative viability (VX-702 + AZD7762; first compound 0.6325 µM): 0.432 | relative viability (VX-702 + AZD7762; first compound 2 µM): 0.897 | relative viability (VX-702 + Bortezomib; first compound 0.02 µM): 0.35 | relative viability (VX-702 + Bortezomib; first compound 0.6325 µM): 0.26 | relative viability (VX-702 + Bortezomib; first compound 2 µM): 0.329 | relative viability (Dabrafenib + Bortezomib; first compound 0.009487 µM): 0.292 | relative viability (Dabrafenib + Bortezomib; first compound 0.03 µM): 0.265 | relative viability (Dabrafenib + Bortezomib; first compound 0.09487 µM): 0.31 | relative viability (Dabrafenib + Bortezomib; first compound 0.3 µM): 0.288

BEN
relative viability (Dabrafenib + Crizotinib; first compound 0.009487 µM): 0.985 | relative viability (Dabrafenib + Crizotinib; first compound 0.09487 µM): 0.749 | relative viability (Dabrafenib + Crizotinib; first compound 0.3 µM): 1.09 | relative viability (VX-702 + AZD7762; first compound 0.02 µM): 0.841 | relative viability (VX-702 + AZD7762; first compound 0.2 µM): 0.637 | relative viability (VX-702 + AZD7762; first compound 0.6325 µM): 0.597 | relative viability (VX-702 + AZD7762; first compound 2 µM): 0.691 | relative viability (VX-702 + Bortezomib; first compound 0.02 µM): 0.823 | relative viability (VX-702 + Bortezomib; first compound 0.2 µM): 0.545 | relative viability (VX-702 + Bortezomib; first compound 0.6325 µM): 0.658 | relative viability (VX-702 + Bortezomib; first compound 2 µM): 0.922 | relative viability (Dabrafenib + Bortezomib; first compound 0.009487 µM): 0.936 | relative viability (Dabrafenib + Bortezomib; first compound 0.09487 µM): 0.696 | relative viability (Dabrafenib + Bortezomib; first compound 0.3 µM): 0.996

CAL-12T
relative viability (Dabrafenib + Crizotinib; first compound 0.003 µM): 0.502 | relative viability (Dabrafenib + Crizotinib; first compound 0.009487 µM): 0.752 | relative viability (Dabrafenib + Crizotinib; first compound 0.03 µM): 0.728 | relative viability (Dabrafenib + Crizotinib; first compound 0.09487 µM): 0.582 | relative viability (Dabrafenib + Crizotinib; first compound 0.3 µM): 0.791 | relative viability (VX-702 + AZD7762; first compound 0.02 µM): 0.517 | relative viability (VX-702 + AZD7762; first compound 0.2 µM): 0.644 | relative viability (VX-702 + AZD7762; first compound 0.6325 µM): 0.58 | relative viability (VX-702 + AZD7762; first compound 2 µM): 0.625 | relative viability (VX-702 + Bortezomib; first compound 0.02 µM): 1.02 | relative viability (VX-702 + Bortezomib; first compound 0.2 µM): 0.928 | relative viability (VX-702 + Bortezomib; first compound 0.6325 µM): 0.885 | relative viability (VX-702 + Bortezomib; first compound 2 µM): 1.06 | relative viability (Dabrafenib + Bortezomib; first compound 0.003 µM): 0.623 | relative viability (Dabrafenib + Bortezomib; first compound 0.009487 µM): 1.18 | relative viability (Dabrafenib + Bortezomib; first compound 0.03 µM): 1.06 | relative viability (Dabrafenib + Bortezomib; first compound 0.09487 µM): 1.12 | relative viability (Dabrafenib + Bortezomib; first compound 0.3 µM): 1.08

COR-L23
relative viability (Dabrafenib + Crizotinib; first compound 0.003 µM): 0.644 | relative viability (Dabrafenib + Crizotinib; first compound 0.009487 µM): 0.627 | relative viability (Dabrafenib + Crizotinib; first compound 0.03 µM): 0.633 | relative viability (Dabrafenib + Crizotinib; first compound 0.09487 µM): 0.607 | relative viability (Dabrafenib + Crizotinib; first compound 0.3 µM): 0.55 | relative viability (VX-702 + Bortezomib; first compound 0.02 µM): 1.08 | relative viability (VX-702 + Bortezomib; first compound 0.2 µM): 1.02 | relative viability (VX-702 + Bortezomib; first compound 0.6325 µM): 1.15 | relative viability (VX-702 + Bortezomib; first compound 2 µM): 1.21 | relative viability (Dabrafenib + Bortezomib; first compound 0.003 µM): 1.06 | relative viability (Dabrafenib + Bortezomib; first compound 0.009487 µM): 1.15 | relative viability (Dabrafenib + Bortezomib; first compound 0.03 µM): 0.91 | relative viability (Dabrafenib + Bortezomib; first compound 0.09487 µM): 0.898 | relative viability (Dabrafenib + Bortezomib; first compound 0.3 µM): 0.915

COR-L 105
relative viability (Dabrafenib + Crizotinib; first compound 0.003 µM): 0.843 | relative viability (Dabrafenib + Crizotinib; first compound 0.009487 µM): 0.987 | relative viability (Dabrafenib + Crizotinib; first compound 0.03 µM): 0.67 | relative viability (Dabrafenib + Crizotinib; first compound 0.09487 µM): 0.719 | relative viability (Dabrafenib + Crizotinib; first compound 0.3 µM): 0.851 | relative viability (VX-702 + Bortezomib; first compound 0.02 µM): 0.957 | relative viability (VX-702 + Bortezomib; first compound 0.2 µM): 0.888 | relative viability (VX-702 + Bortezomib; first compound 0.6325 µM): 0.907 | relative viability (VX-702 + Bortezomib; first compound 2 µM): 0.54 | relative viability (Dabrafenib + Bortezomib; first compound 0.003 µM): 0.721 | relative viability (Dabrafenib + Bortezomib; first compound 0.009487 µM): 0.843 | relative viability (Dabrafenib + Bortezomib; first compound 0.03 µM): 0.69 | relative viability (Dabrafenib + Bortezomib; first compound 0.09487 µM): 0.738 | relative viability (Dabrafenib + Bortezomib; first compound 0.3 µM): 0.895

Calu-6
relative viability (Dabrafenib + Crizotinib; first compound 0.003 µM): 0.681 | relative viability (Dabrafenib + Crizotinib; first compound 0.009487 µM): 0.833 | relative viability (Dabrafenib + Crizotinib; first compound 0.03 µM): 0.786 | relative viability (Dabrafenib + Crizotinib; first compound 0.09487 µM): 0.555 | relative viability (Dabrafenib + Crizotinib; first compound 0.3 µM): 0.577 | relative viability (VX-702 + Bortezomib; first compound 0.02 µM): 1.04 | relative viability (VX-702 + Bortezomib; first compound 0.2 µM): 1.12 | relative viability (VX-702 + Bortezomib; first compound 0.6325 µM): 1.24 | relative viability (VX-702 + Bortezomib; first compound 2 µM): 1.16 | relative viability (Dabrafenib + Bortezomib; first compound 0.003 µM): 1.07 | relative viability (Dabrafenib + Bortezomib; first compound 0.009487 µM): 1.03 | relative viability (Dabrafenib + Bortezomib; first compound 0.03 µM): 0.844 | relative viability (Dabrafenib + Bortezomib; first compound 0.09487 µM): 0.712 | relative viability (Dabrafenib + Bortezomib; first compound 0.3 µM): 0.824

ChaGo-K-1
relative viability (Dabrafenib + Crizotinib; first compound 0.009487 µM): 1.16 | relative viability (Dabrafenib + Crizotinib; first compound 0.03 µM): 1.15 | relative viability (Dabrafenib + Crizotinib; first compound 0.09487 µM): 1.03 | relative viability (Dabrafenib + Crizotinib; first compound 0.3 µM): 1.12 | relative viability (VX-702 + AZD7762; first compound 0.02 µM): 0.958 | relative viability (VX-702 + AZD7762; first compound 0.2 µM): 0.879 | relative viability (VX-702 + AZD7762; first compound 0.6325 µM): 0.896 | relative viability (VX-702 + AZD7762; first compound 2 µM): 0.879 | relative viability (VX-702 + Bortezomib; first compound 0.02 µM): 0.911 | relative viability (VX-702 + Bortezomib; first compound 0.2 µM): 0.861 | relative viability (VX-702 + Bortezomib; first compound 0.6325 µM): 1.06 | relative viability (VX-702 + Bortezomib; first compound 2 µM): 1.22 | relative viability (Dabrafenib + Bortezomib; first compound 0.009487 µM): 0.816 | relative viability (Dabrafenib + Bortezomib; first compound 0.03 µM): 1.01 | relative viability (Dabrafenib + Bortezomib; first compound 0.09487 µM): 0.983 | relative viability (Dabrafenib + Bortezomib; first compound 0.3 µM): 1.11

EBC-1
relative viability (Dabrafenib + Crizotinib; first compound 0.009487 µM): 0.193 | relative viability (Dabrafenib + Crizotinib; first compound 0.03 µM): 0.207 | relative viability (Dabrafenib + Crizotinib; first compound 0.09487 µM): 0.196 | relative viability (Dabrafenib + Crizotinib; first compound 0.3 µM): 0.245 | relative viability (VX-702 + Bortezomib; first compound 0.02 µM): 0.622 | relative viability (VX-702 + Bortezomib; first compound 0.2 µM): 0.545 | relative viability (VX-702 + Bortezomib; first compound 0.6325 µM): 0.587 | relative viability (VX-702 + Bortezomib; first compound 2 µM): 0.603 | relative viability (Dabrafenib + Bortezomib; first compound 0.003 µM): 0.602 | relative viability (Dabrafenib + Bortezomib; first compound 0.009487 µM): 0.644 | relative viability (Dabrafenib + Bortezomib; first compound 0.03 µM): 0.477 | relative viability (Dabrafenib + Bortezomib; first compound 0.09487 µM): 0.411 | relative viability (Dabrafenib + Bortezomib; first compound 0.3 µM): 0.353
